Data on eight compounds can be found in patent US4767778A (Institut National de la Sante et de la Recherche Medicale …, priority 1985, dated 1988).

Like-named read-outs stand apart in the source and are kept apart here. Some results are limits rather than exact numbers.

One assay has as its system H1 /H2 receptors. The settings on record: histamine = 100%; cited from earlier work.
For assay [1], the target named is T1, H3 autoreceptors (Rattus norvegicus, UniProt Q9QYN8).
For assay [2], the system named is H3 receptors. The assay can be described thus: Inhibition of synthesis of histamine in slices of human cerebral cortex and posterior hypothalamus. It counts as cell-based. The settings on record: slices of human cerebral cortex and posterior hypothalamus (mamillary).
The test system of assay [3] is H3 receptors. The assay can be described thus: Inhibition of the synthesis of (3H) histamine in rats in vivo. On the set-up: species or system rat. The settings on record: for (3) histamine (% of the total radioactivity × 10^-3), Treated: 10 minutes.
In assay [4] the target is T1, H3 autoreceptors. The settings on record: slices of rat brain.

T1 sequence (Q9QYN8 whole entry): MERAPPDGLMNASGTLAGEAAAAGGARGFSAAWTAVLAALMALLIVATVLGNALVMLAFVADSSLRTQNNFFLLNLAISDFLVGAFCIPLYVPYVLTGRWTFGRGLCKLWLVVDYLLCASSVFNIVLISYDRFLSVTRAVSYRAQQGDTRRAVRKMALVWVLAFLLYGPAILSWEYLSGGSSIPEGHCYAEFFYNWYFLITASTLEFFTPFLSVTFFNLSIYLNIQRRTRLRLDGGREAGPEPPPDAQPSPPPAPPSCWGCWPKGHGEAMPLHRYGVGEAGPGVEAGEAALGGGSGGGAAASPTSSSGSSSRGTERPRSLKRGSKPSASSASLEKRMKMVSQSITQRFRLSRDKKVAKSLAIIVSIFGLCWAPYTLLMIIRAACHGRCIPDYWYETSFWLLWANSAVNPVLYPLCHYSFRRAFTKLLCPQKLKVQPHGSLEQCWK

By EC50 is commonly meant the concentration needed to bring the measured effect to its halfway point. A lower EC50 goes with a more potent agent. With `CC(CN)c1c[nH]cn1` (racemic) [3 (R, S), 4-(1-methyl 2-aminoethyl)-imidazole], the “Activity relative to histamine (%) H1 /H2 receptors” value in the assay on H1 /H2 receptors is given as 2-2%. For the same compound, it took 20 ± 5 nM to reach a half-maximal effect on H3 autoreceptors [1] (EC50). Moreover, the “Activity relative to histamine (%) H3 receptors” value on H3 autoreceptors [1] (histamine = 100% (EC50 […] nM)) stood at 120%.
Regarding `C[C@](N)(Cc1c[nH]cn1)C(=O)O` (racemic) [6 (R, S), α-methylhistidine], the “Activity relative to histamine (%) H1 /H2 receptors” value in the assay with H1 /H2 receptors was “inactive”. In addition, the EC50 at H3 autoreceptors [1] was 1000 ± 500 nM. Besides, the “Activity relative to histamine (%) H3 receptors” value at H3 autoreceptors [1] (histamine = 100% (EC50 […] nM)) amounted to 6%.
Regarding `CC(N)Cc1c[nH]cn1` (racemic) [compound 1, 4-(2-aminopropyl)-imidazole], the “effect on synthesis of histamine” value in the assay with H3 receptors [2] was “inhibits”.
Consider `C[C@@H](N)Cc1c[nH]cn1` [1 (R), 4-(2-aminopropyl)-imidazole], for which the “effect on the synthesis of (3H) histamine in the brain and peripheral tissues” value in the assay with H3 receptors [3] (10 mg/kg, simultaneous with (3H)-L-histidine, completely reversed by an H3 antagonist) is recorded as “significantly reduces”. Also, the “(3) histamine (% of the total radioactivity × 10^-3), Treated” value in the assay with H3 receptors [3] (Cerebral cortex, 10 mg/kg i.v. with (3H)-L-histidine, controls 95 ± 6) is 53 ± 6 % of the total radioactivity ×; with H3 receptors [3] (Hypothalmus, 10 mg/kg i.v., controls 272 ± 11), 185 ± 32 % of the total radioactivity ×; in the assay on H3 receptors [3] (Lungs, 10 mg/kg i.v., controls 138 ± 10) it was 94 ± 10 % of the total radioactivity ×; with H3 receptors [3] (Spleen, 10 mg/kg i.v., controls 60 ± 8) it was 42 ± 5 % of the total radioactivity ×. Moreover, the “Variation (%)” value in the assay with H3 receptors [3] (Cerebral cortex, 10 mg/kg i.v., p < 0.01) was -45%; in the assay with H3 receptors [3] (Hypothalmus, 10 mg/kg i.v., p < 0.01) it was -32%; in the assay with H3 receptors [3] (Kidneys, 10 mg/kg i.v., p < 0.05), -30%; in the assay on H3 receptors [3] (Lungs, 10 mg/kg i.v., p < 0.05), -32%; in the assay on H3 receptors [3] (Spleen, 10 mg/kg i.v., p < 0.05), -30%.
As for `CC(C)(N)Cc1c[nH]cn1` [compound 2, 4-(2-methyl 2-aninopropyl)-imidazole], in the assay with H1 /H2 receptors, the “Activity relative to histamine (%) H1 /H2 receptors” value was under 1%. Besides, at H3 autoreceptors [1], the “Activity relative to histamine (%) H3 receptors” value is 300% and the midpoint of the response, the EC50, lay at 20 ± 10 nM.
As to `CC(C)(CN)c1c[nH]cn1` [compound 4, 4-(1,1-dimethyl 2-aminoethyl)-imidazole], the “Activity relative to histamine (%) H1 /H2 receptors” value with H1 /H2 receptors was under 0.1%. For the same compound, on H3 autoreceptors [1], the EC50 was determined as 50 ± 20 nM. The “Activity relative to histamine (%) H3 receptors” value at H3 autoreceptors [1] (histamine = 100% (EC50 […] nM)) is recorded as 120%.
In the case of `NC1CC1c1c[nH]cn1` (stereo not shown) [compound 5, 2-(4-imidazolyl)-cyclopropylamine], the “Activity relative to histamine (%) H1 /H2 receptors” value with H1 /H2 receptors was under 1%. The concentration giving a half-maximal response (EC50) at H3 autoreceptors [1] is under 100 nM. For the same compound, the “Activity relative to histamine (%) H3 receptors” value at H3 autoreceptors [1] (histamine = 100% (EC50 […] nM)) was over 60%.
For the compound `NCCc1c[nH]cn1` [histamine, reference compound], the “maximal inhibition of release of (3H) histamine” value at H3 autoreceptors [1] (slices of rat brain) is recorded as “approximately 60%”. Moreover, the “maximal inhibition of the stimulation by potassium of the synthesis of (3H) histamine” value on H3 autoreceptors [4] is given as “approximately 70%”.
